Results: patent publication US7026296B2, “Methods of treating dry eye disorders” (Alcon, Inc., priority 2002, dated 2006)

What was measured:
[1] = system: IL-6 production from CEPI-17 cells; test: Inhibition of hyperosmolarity-induced IL-6 production from human corneal epithelial cells in vitro; type: cell-based; conditions: Corneal epithelial cell, 1 hour pre-treatment, hypertonic KGM-HC (additional 80 mM NaCl) 6 hours, ELISA, normalized by dsDNA
Procedure: (§1) Inhibition of Hyperosmolarity-Induced Cytokine Production from Human Corneal Epithelial Cells in vitro.
(§2) The ocular tear film in dry eye is abnormally hyperosmolar, which is irritating to ocular surface cells. Treatment of human conjunctival epithelial cells with a hypertonic media elicits the production of pro-inflammatory cytokines. A selective JNK inhibitor, anthra[1,9-cd]pyrazol-6(2H)-one, was evaluated for inhibition of hyperosmolarity-induced cytokine secretion from the transformed human corneal epithelial cell line, CEPI-17.CEPI-17 cells were grown in complete isotonic Keratinocyte Growth Medium (iso KGM) and plated in 48-well plates in iso KGM without hydrocortisone (iso KGM-HC). When the cells reached confluence, they were pre-treated for 1 hour with the compound at the indicated concentration in iso KGM-HC. The cells were then stimulated by hypertonic KGM-HC for 6 hours (additional 80 mM NaCl added in iso KGM-HC) in the presence of the compound. Aliquots of the supernatants were assayed for IL-6,IL-8 by ELISA. Cytokine release was normalized by the amount of double stranded DNA (dsDNA) extracted from the cells. Percent inhibition of cytokine production was calculated by comparison with cytokine levels in vehicle-treated cells.

[2] = system: IL-8 production from CEPI-17 cells; test: Inhibition of hyperosmolarity-induced IL-8 production from human corneal epithelial cells in vitro; type: cell-based; conditions: Corneal epithelial cell, 1 hour pre-treatment, hypertonic KGM-HC (additional 80 mM NaCl) 6 hours, ELISA, normalized by dsDNA
Procedure: as §1, §2

`O=C1c2ccccc2-c2n[nH]c3cccc1c23` [SP-600125, anthra[1,9-cd]pyrazol-6(2H)-one] showed an IC50 [1] of 12.6 µM and an IC50 [2] of 3.7 µM.
